The source of these data is patent publication US6858591B2, “Antibiotic AA 896 analogs” (Wyeth Holdings Corporation, priority 2001, dated 2005).

Molecules are shown by their SMILES. Values after ≈ are worked out from the molar mass of the structure shown. Where two headings read alike, the source gives them in different places. Where only a bound is given, the exact number is not on record here.

Common to all, as to assay: In vitro MIC, broth dilution
Holding throughout (assay type): cell-based
(In broth dilution the organism is exposed to a series of concentrations in liquid medium.)

In one assay the test system is E. coli GC 4559. The conditions noted are these: Escherichia coli, GC4559; E. coli GC 4559; read-out: MIC.
Another assay deals with E. coli GC 4560. Conditions: Escherichia coli, GC4560; E. coli GC 4560; read-out: MIC.
The test system of a further assay is E. coli GC 3226. The conditions noted are these: Escherichia coli, GC3226; E. coli GC 3226; read-out: MIC.
Another assay deals with S. marcescens GC 4077. The conditions noted are these: Serratia marcescens, GC4077; S. marcescens GC 4077; read-out: MIC.
A further assay has as its system C. albicans GC 3066. The conditions noted are these: Candida albicans, GC3066; C. albicans GC 3066; read-out: MIC.
The subject of another assay is M. morganii GC 4531. Conditions: Morganella morganii, GC4531; M. morganii GC 4531; read-out: MIC.
For another assay, the system named is K. pneumoniae GC 4534. Conditions: Klebsiella pneumoniae, GC4534; K. pneumoniae GC 4534; read-out: MIC.
For a further assay, the system named is E. cloacae GC 3783. Conditions: Enterobacter cloacae, GC3783; E. cloacae GC 3783; read-out: MIC.
In another assay the test system is P. aeruginosa GC 4532. The conditions noted are these: Pseudomonas aeruginosa, GC4532; P. aeruginosa GC 4532; read-out: MIC.
A further assay concerns CNS GC 4537. The procedure, abridged:
(§1)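 NCCLS broth dilution; Mueller-Hinton II; 5×10^5 CFU/ml; 64-0.06 μg/ml; 18 h, 35 °C, ambient air; MIC read as lowest growth-inhibiting concentration.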

The next assay has as its system CNS GC 4538. The procedure, abridged:
as §1

Another assay concerns CNS GC 4547. The procedure, abridged: as §1
The test system of a further assay is E. faecalis GC 2242. Conditions: Enterococcus faecalis, GC2242; E. faecalis GC 2242; read-out: MIC. The procedure, abridged: as §1
The subject of a further assay is E. faecalis GC 4555. The conditions noted are these: Enterococcus faecalis, GC4555; E. faecalis GC 4555; read-out: MIC. The procedure, abridged:
as §1

The subject of a further assay is E. faecalis GC 842. Conditions: Enterococcus faecalis, GC842; E. faecalis GC 842; read-out: MIC. The procedure, abridged:
as §1

A further assay concerns S. aureus GC 1131. The conditions noted are these: Staphylococcus aureus, GC1131; S. aureus GC 1131; read-out: MIC. The procedure, abridged: as §1
The subject of the next assay is S. aureus GC 2216. Conditions: Staphylococcus aureus, GC2216; S. aureus GC 2216; read-out: MIC. The procedure, abridged: as §1
The test system of the next assay is S. aureus GC 4536. Conditions: Staphylococcus aureus, GC4536; S. aureus GC 4536; read-out: MIC. The procedure, abridged:
as §1

For another assay, the system named is E. coli GC 2203. The conditions noted are these: Escherichia coli, GC2203; E. coli GC 2203; read-out: MIC.
Another assay relates to P. aeruginosa GC 2214. The conditions noted are these: Pseudomonas aeruginosa, GC2214; P. aeruginosa GC 2214; read-out: MIC.

A word on the MIC: it is the lowest concentration that inhibits growth of the organism. For the compound `CCOC(=O)C(NCCCNC(=O)[C@@H](NC(=O)[C@H](CCCNC(=N)N[N+](=O)O)NC(=O)N[C@H](C(=O)OCc1ccccc1)C(C)C)[C@@H](O)C(C)C)C(O)[C@H]1O[C@@H](n2ccc(=O)[nH]c2=O)[C@H](OC(C)=O)[C@@H]1OC(C)=O` (stereo partly drawn) [Example 37, 16-Benzyl 2-ethyl (1R,9S,12S,16S)-1-[(2R,3R,4R,5R)-3,4-bis(acetyloxy)-5-(2,4-dioxo-3,4-dihydro-1(2H)-pyrimidinyl)tetrahydro-2-furanyl]-12-(3-{[(2,2-dioxido-2lambda˜1˜-diazanyl)(imino)methyl]amino}propyl)-1-hydroxy-9-[(1S)-hydroxy-2-methylpropyl]-17-methyl-8,11,14-trioxo-3,7,10,13,15-pentaazaoctadecane-2,16-dicarboxylate], the minimum inhibitory concentration (MIC) in the assay with E. coli GC 4559, in the assay with E. coli GC 4560, in the assay with E. coli GC 3226, with S. marcescens GC 4077, in the assay with C. albicans GC 3066 and with M. morganii GC 4531 was > 128 µg/mL in each case. The MIC with K. pneumoniae GC 4534, in the assay with E. cloacae GC 3783, in the assay with P. aeruginosa GC 4532, in the assay on CNS GC 4537, in the assay with CNS GC 4538 and with CNS GC 4547 was > 128 µg/mL in each case. Further, the MIC is 128 µg/mL in the assay on E. faecalis GC 2242; > 128 µg/mL with E. faecalis GC 4555; > 128 µg/mL in the assay on E. faecalis GC 842; > 128 µg/mL in the assay with S. aureus GC 1131; > 128 µg/mL in the assay with S. aureus GC 2216; > 128 µg/mL in the assay on S. aureus GC 4536. The MIC in the assay with E. coli GC 2203 and with P. aeruginosa GC 2214 was > 128 µg/mL in each case.
Regarding `CCOC(=O)C(NCCCNC(=O)[C@H](CC(C)C)NC(=O)OCc1ccccc1)C(OC(C)=O)[C@H]1O[C@H](n2ccc(=O)[nH]c2=O)[C@H](OC(C)=O)[C@@H]1OC(C)=O` (stereo partly drawn) [Example 38a, Ethyl (5S)-12-{(R)-(acetyloxy)[(2R,3R,4R,5S)-3,4-bis(acetyloxy)-5-(2,4-dioxo-3,4-dihydro-1(2H)-pyrimidinyl)tetrahydro-2-furanyl]methyl}-5-isobutyl-3,6-dioxo-1-phenyl-2-oxa-4,7,11-triazatridecan-13-oate], the MIC in the assay on E. coli GC 4559, in the assay with E. coli GC 4560, in the assay on E. coli GC 3226, in the assay with S. marcescens GC 4077, with C. albicans GC 3066 and with M. morganii GC 4531 was > 128 µg/mL throughout. For the same compound, the MIC in the assay on K. pneumoniae GC 4534 is > 128 µg/mL; in the assay on E. cloacae GC 3783, > 128 µg/mL; in the assay on P. aeruginosa GC 4532 it was > 128 µg/mL; with CNS GC 4537 (CNS GC 4537, read-out: MIC), > 128 µg/mL; in the assay on CNS GC 4538 (CNS GC 4538, read-out: MIC), > 128 µg/mL; in the assay with CNS GC 4547 (CNS GC 4547, read-out: MIC), > 128 µg/mL. Also, the minimum inhibitory concentration (MIC) in the assay on E. faecalis GC 2242, in the assay with E. faecalis GC 4555, with E. faecalis GC 842, in the assay with S. aureus GC 1131, in the assay on S. aureus GC 2216 and in the assay on S. aureus GC 4536 was > 128 µg/mL in each case. Moreover, the MIC with E. coli GC 2203 and with P. aeruginosa GC 2214 was > 128 µg/mL throughout.
For the compound `CCOC(=O)C(NCCCNC(=O)[C@H](CC(C)C)NC(=O)OCc1ccccc1)C(OC(C)=O)[C@H]1O[C@@H](n2ccc(=O)[nH]c2=O)[C@H](OC(C)=O)[C@@H]1OC(C)=O` (stereo partly drawn) [Example 38b, Ethyl (5S)-12-{(R)-(acetyloxy)[(2R,3R,4R,5R)-3,4-bis(acetyloxy)-5-(2,4-dioxo-3,4-dihydro-1(2H)-pyrimidinyl)tetrahydro-2-furanyl]methyl}-5-isobutyl-3,6-dioxo-1-phenyl-2-oxa-4,7,11-triazatridecan-13-oate], the MIC in the assay on E. coli GC 4559, in the assay with E. coli GC 4560, with E. coli GC 3226, in the assay with S. marcescens GC 4077, in the assay on C. albicans GC 3066 and with M. morganii GC 4531 was > 128 µg/mL throughout. The MIC with K. pneumoniae GC 4534 was > 128 µg/mL; with E. cloacae GC 3783, > 128 µg/mL; in the assay on P. aeruginosa GC 4532 it was > 128 µg/mL; with CNS GC 4537 (CNS GC 4537, read-out: MIC), > 128 µg/mL; in the assay with CNS GC 4538 (CNS GC 4538, read-out: MIC) it was > 128 µg/mL; in the assay with CNS GC 4547 (CNS GC 4547, read-out: MIC), > 128 µg/mL. Besides, the MIC with E. faecalis GC 2242, in the assay with E. faecalis GC 4555, with E. faecalis GC 842, in the assay on S. aureus GC 1131, with S. aureus GC 2216 and in the assay on S. aureus GC 4536 was > 128 µg/mL in each case. In addition, the MIC in the assay on E. coli GC 2203 and in the assay with P. aeruginosa GC 2214 was > 128 µg/mL each time.
For `CCOC(=O)C(NCCCNC(=O)[C@@H](N)CC(C)C)[C@@H](OC(C)=O)[C@H]1O[C@H](n2ccc(=O)[nH]c2=O)[C@H](OC(C)=O)[C@@H]1OC(C)=O` (stereo partly drawn) [Example 39, Ethyl (3R)-3-(acetyloxy)-2-[(3-{[(2S)-2-amino-4-methylpentanoyl]amino}propyl)amino]-3-[(2R,3R,4R,5S)-3,4-bis(acetyloxy)-5-(2,4-dioxo-3,4-dihydro-1(2H)-pyrimidinyl)tetrahydro-2-furanyl]propanoate], the MIC is > 128 µg/mL in the assay on E. coli GC 4559; > 128 µg/mL in the assay with E. coli GC 4560; > 128 µg/mL in the assay on E. coli GC 3226; 128 µg/mL (≈ 199 µM) in the assay with S. marcescens GC 4077; 128 µg/mL (≈ 199 µM) in the assay on C. albicans GC 3066; 128 µg/mL (≈ 199 µM) in the assay with M. morganii GC 4531. Moreover, the MIC is > 128 µg/mL in the assay on K. pneumoniae GC 4534; > 128 µg/mL with E. cloacae GC 3783; 128 µg/mL (≈ 199 µM) in the assay on P. aeruginosa GC 4532; > 128 µg/mL with CNS GC 4537 (CNS GC 4537, read-out: MIC); > 128 µg/mL in the assay on CNS GC 4538 (CNS GC 4538, read-out: MIC); > 128 µg/mL in the assay on CNS GC 4547 (CNS GC 4547, read-out: MIC). Also, the MIC in the assay with E. faecalis GC 2242 is 128 µg/mL (≈ 199 µM); in the assay with E. faecalis GC 4555, > 128 µg/mL; with E. faecalis GC 842 it was > 128 µg/mL; with S. aureus GC 1131, > 128 µg/mL; in the assay with S. aureus GC 2216 it was > 128 µg/mL; with S. aureus GC 4536 it was > 128 µg/mL. For the same compound, the results for the MIC with E. coli GC 2203 and in the assay on P. aeruginosa GC 2214 were > 128 µg/mL and 128 µg/mL (≈ 199 µM), respectively.
As for `CCOC(=O)C(NCCCNC(=O)[C@@H](N)CC(C)C)[C@@H](OC(C)=O)[C@H]1O[C@@H](n2ccc(=O)[nH]c2=O)[C@H](OC(C)=O)[C@@H]1OC(C)=O` (stereo partly drawn) [Example 40, Ethyl (3R)-3-(acetyloxy)-2-[(3-{[(2S)-2-amino-4-methylpentanoyl]amino}propyl)amino]-3-[(2R,3R,4R,5R)-3,4-bis(acetyloxy)-5-(2,4-dioxo-3,4-dihydro-1(2H)-pyrimidinyl)tetrahydro-2-furanyl]propanoate], the MIC in the assay on E. coli GC 4559, in the assay with E. coli GC 4560, in the assay with E. coli GC 3226, with S. marcescens GC 4077, in the assay on C. albicans GC 3066 and in the assay on M. morganii GC 4531 was > 128 µg/mL in each case. The MIC in the assay with K. pneumoniae GC 4534 was > 128 µg/mL; with E. cloacae GC 3783, > 128 µg/mL; in the assay with P. aeruginosa GC 4532, 128 µg/mL (≈ 199 µM); in the assay with CNS GC 4537 (CNS GC 4537, read-out: MIC) it was > 128 µg/mL; in the assay on CNS GC 4538 (CNS GC 4538, read-out: MIC), > 128 µg/mL; in the assay with CNS GC 4547 (CNS GC 4547, read-out: MIC), > 128 µg/mL. For the same compound, the MIC in the assay on E. faecalis GC 2242 was 128 µg/mL (≈ 199 µM); with E. faecalis GC 4555, > 128 µg/mL; in the assay on E. faecalis GC 842 it was > 128 µg/mL; with S. aureus GC 1131, > 128 µg/mL; in the assay on S. aureus GC 2216, > 128 µg/mL; in the assay with S. aureus GC 4536, > 128 µg/mL. The MIC in the assay with E. coli GC 2203 was > 128 µg/mL; in the assay on P. aeruginosa GC 2214 it was 128 µg/mL (≈ 199 µM).
